Reference: BindingDB's records for doi:10.1021/jm301674z (Takeda Pharmaceutical, 2013)

target: Baculoviral IAP repeat-containing protein 2 (Homo sapiens) (UniProt Q13490); experiment: Inhibition of human recombinant His-tagged cIAP1 protein BIR3 domain (250 to 350 amino acid residues) using biotinylated-Smac as substrate after overnight incubation by HTRF assay
Sequence (Q13490 whole entry, looked up, the tested form may be a part): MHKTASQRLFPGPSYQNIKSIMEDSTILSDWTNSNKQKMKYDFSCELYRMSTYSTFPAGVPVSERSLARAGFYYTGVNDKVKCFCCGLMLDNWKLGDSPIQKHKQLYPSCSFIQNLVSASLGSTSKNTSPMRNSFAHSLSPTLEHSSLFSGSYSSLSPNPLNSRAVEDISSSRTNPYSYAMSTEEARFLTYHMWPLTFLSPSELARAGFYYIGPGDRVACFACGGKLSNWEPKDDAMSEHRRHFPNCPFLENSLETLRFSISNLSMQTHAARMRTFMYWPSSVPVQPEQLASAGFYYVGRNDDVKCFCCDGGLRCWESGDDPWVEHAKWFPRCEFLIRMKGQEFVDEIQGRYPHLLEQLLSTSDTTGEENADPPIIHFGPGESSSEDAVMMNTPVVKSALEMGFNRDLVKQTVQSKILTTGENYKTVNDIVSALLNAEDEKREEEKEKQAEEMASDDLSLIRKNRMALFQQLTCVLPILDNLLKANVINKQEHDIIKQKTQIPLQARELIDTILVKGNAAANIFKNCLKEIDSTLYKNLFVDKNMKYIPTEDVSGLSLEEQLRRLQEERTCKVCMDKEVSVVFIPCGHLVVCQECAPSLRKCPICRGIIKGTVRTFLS

Structure (SMILES) | IC50 [nM]
CCO[C@@H]1C[C@@H]2CN(C(=O)[C@@H](NC(=O)[C@H](C)NC)C3CCC(F)(F)CC3)[C@H](C(=O)N[C@@H]3CCOc4ccccc43)CN2C1 | 1.3
CN[C@@H](C)C(=O)N[C@H](C(=O)N1C[C@H]2C[C@@H](O)CN2C[C@H]1C(=O)N[C@@H]1CCOc2ccccc21)C1CCC(F)(F)CC1 | 4.9
CN[C@@H](C)C(=O)N[C@H](C(=O)N1C[C@H]2CC(F)(F)CN2C[C@H]1C(=O)N[C@@H]1CCOc2ccccc21)C1CCC(F)(F)CC1 | 1.7
CN[C@@H](C)C(=O)N[C@H](C(=O)N1C[C@@H]2CCCN2C[C@H]1C(=O)N[C@@H]1CCOc2ccccc21)C1CCC(F)(F)CC1 | 2.5
CN[C@@H](C)C(=O)N[C@H](C(=O)N1C[C@H]2CCCN2C[C@H]1C(=O)N[C@@H]1CCOc2ccccc21)C1CCC(F)(F)CC1 | 3.2
CN[C@@H](C)C(=O)N[C@H](C(=O)N1C[C@H]2CCCN2C[C@H]1C(=O)N[C@@H]1CCOc2ccccc21)c1ccccc1 | 2.6

Continued, values first:

IC50 [nM] | Structure (SMILES)
3.4 | CN[C@@H](C)C(=O)N[C@H](C(=O)N1C[C@H]2CCCN2C[C@H]1C(=O)N[C@@H]1CCOc2ccccc21)C1CCOCC1
7.6 | CN[C@@H](C)C(=O)N[C@H](C(=O)N1C[C@H]2CCCN2C[C@H]1C(=O)N[C@@H]1CCC(=O)c2ccccc21)C1CCCCC1
4 | CN[C@@H](C)C(=O)N[C@H](C(=O)N1C[C@H]2CCCN2C[C@H]1C(=O)N[C@@H]1CCC(F)(F)c2ccccc21)C1CCCCC1
1300 | CN[C@@H](C)C(=O)N[C@H](C(=O)N1C[C@H]2CCCN2C[C@H]1C(=O)N[C@H]1CCCc2ccccc21)C1CCCCC1
2.7 | CN[C@@H](C)C(=O)N[C@H](C(=O)N1C[C@H]2CCCN2C[C@H]1C(=O)N[C@@H]1CCCc2ccccc21)C1CCCCC1
14 | CN[C@@H](C)C(=O)N[C@H](C(=O)N1C[C@H]2CCCN2C[C@H]1C(=O)N[C@H](C)c1ccccc1)C1CCCCC1
